Structures can show the parent of a compound that is named as a salt.
Assays:
[1] = tested on: tiger sharks and other fish; settings: in vivo; cited from earlier work
[2] = tested on: several species of sharks; settings: shark pens at Bimini, Bahamas; cited from earlier work
sharks [3] = settings: in vivo
[4] = tested on: at least four species of sharks; settings: cited from earlier work
[5] = room temperature, heat; cited from earlier work
sharks [6] = settings: cited from earlier work
[7] = tested on: young Lemon Sharks (Negaprion brevirostris); settings: in vivo; cited from earlier work
[8] = tested on: blue sharks and great white sharks; settings: squirted into the mouth; cited from earlier work

**Q.** What does the source list for copper acetate?
**A.** efficacy against tiger sharks and other fish [1]: inefficacy; repelling or inhibiting feeding activities [2]: fails to repel or inhibit the feeding activities; effectiveness as a shark repellent (sharks [3]): ineffective

**Q.** Which results are given for pardaxin?
**A.** effectiveness relative to the fresh secretion ([4]; freeze-dried form): 30%; time for which sharks were repelled ([4]; laboratory and open sea, at least four species): ≥ 10 h; storage stability [5]: not stable for room temperature storage, and was heat-sensitive

**Q.** Which “meeting the Navy's potency requirement for a nondirectional surrounding-cloud type repellent” value (sharks [6]; requirement 100 parts per billion (0.1 ppm or 100 micrograms/Liter)) does the source give for `CCCCCCCCCCCCOS(=O)(=O)O` [dodecyl sulfate] here?
**A.** did not meet

**Q.** For `CCCCCCCCCCCCOS(=O)(=O)[O-].[Na+]` [SLS], which “repelling captive Lemon Sharks, compared with pardaxin” value [7] is on record?
**A.** even more effective than pardaxin

**Q.** What about the “repellency against blue sharks and great white sharks” value [8] of the same molecule?
**A.** effective repellent

**Q.** And the “effectiveness in surrounding-cloud-mode dispersions” value (sharks [6]; in vivo)?
**A.** not effective

**Q.** For `CCCCCCCCCCCCOS(=O)(=O)[O-].[Li+]` [LLS], which “repelling captive Lemon Sharks, compared with pardaxin” value [7] is on record?
**A.** even more effective than pardaxin
